{"source": "patent US9370526B2", "about": "“Combination hormone replacement therapy (HRT) and melatonin to prevent and treat mammary cancer” (Duquesne University of the Holy Spirit, priority 2009, dated 2016)", "key": {"[1]": {"tested_on": "MMTV-neu mice (neu oncogene, mimics HER2+ breast cancer)", "assay": "Mammary tumor onset (latency) and incidence in MMTV-neu mice given oral HRT diet and/or nocturnal melatonin in drinking water", "type": "in vivo", "description": "(§1) We studied the effects of the present combination therapy as follows. We chose a mouse model, MMTV-neu mice, which express the neu oncogene that mimics HER2+ breast cancer. In a population of mice, both melatonin and HRT were given orally to correlate with the dosage method in women, basing the dosing on diet based on the calories an average woman consumes daily, namely, 1800 kcal, but adjusting for the small size and metabolism of the mice. Estrogen+progestin HRT contained the bioidentical hormones 17β-estradiol (E2) at the currently recommended dosage for women (0.5 mg/1800 kcal) and progesterone (P4) at half of the recommended dose (50 mg/1800 kcal). For example, the daily mouse dose would be less than 500 mcg progesterone (P4). Melatonin was provided in the drinking water at a concentration of 15 mg/L (dose equivalent to a 5 mg tablet for women) only during the night to supplement the normal nocturnal surge in endogenous melatonin. Using drinking water rather than food to administer melatonin allowed the mice continual access to the control and HRT diets, instead of just during the night (dark cycle).\nReferring now to FIG. 1, survival curves are shown which represent the age of primary mammary tumor onset in weeks, on the x axis, and percent mammary tumor incidence on the y axis. FIG. 1a represents age of primary mammary tumor onset and incidence between control (C/V) vs. melatonin (C/M) groups, with C signifying no hormone administration, V signifying no melatonin administration, and M signifying melatonin administration. FIG. 1b represents control vs. HRT (HRT/V) groups, with C signifying no hormone administration, V signifying no melatonin administration, and with HRT signifying Hormone Replacement Therapy (in FIG. 1b, without melatonin, or “V”). FIG. 1c represents the results of HRT/V versus HRT/M administration (M=melatonin) and FIG. 1d represents the results of CN versus HRT/M administration. […] No change in body weight occurred as a result of the treatments. […] FIG. 1c represents HRT vs. HRT plus melatonin; FIG. 1d represents control versus HRT plus melatonin."}, "[2]": {"tested_on": "mammary tumors in MMTV-neu mice", "assay": "Mammary tumor growth and progression (tumor weight, volume, metastatic incidence), same study", "type": "in vivo", "details": "compared to control animals (FIG. 2)", "description": "as §1"}, "[3]": {"tested_on": "RNA expression in the lower mammary gland", "assay": "RNA expression in the lower mammary gland by microarray analysis", "type": "in vivo, mice", "quoted_text": "FIG. 3 reports aggregated data regarding thousands of RNA fragments tested for over- or under-expression of more than one and one-half times more or less expression than in control, for mice treated with C/C (no hormone, no melatonin control), C/M (no hormone/melatonin), EMP/C (estrogen/mid progesterone (that is, half the recommended dose of progesterone, or 50 mg (P4)) but no melatonin) and EMP/M (estrogen/mid progesterone (that is, half the recommended dose of progesterone, or 50 mg (P4)) and melatonin)."}}}
{"smiles": "COc1ccc2[nH]cc(CCNC(C)=O)c2c1", "note": "[melatonin]", "values": [{"measurement": "incidence of mammary cancer, in words", "setting": "[1]; compared to control animals", "result": "did not modify"}, {"measurement": "latency of mammary cancer (age of primary tumor onset), in words", "setting": "[1]; compared to control animals", "result": "did not modify"}, {"measurement": "incidence of mammary cancer (animals with tumor/animals in group)", "setting": "[1]; control 44/57", "result": "42/57"}, {"measurement": "incidence of mammary cancer", "setting": "[1]; control 77%", "result": 74, "unit": "%"}, {"measurement": "tumor volume", "setting": "[2]", "result": "significant decrease"}, {"measurement": "tumor weight", "setting": "[2]", "result": "significant decrease"}, {"measurement": "RNA expression changes (upregulation and downregulation), in words", "setting": "[3]", "result": "limited number of RNA expression changes"}]}
